Structures can show the parent of a compound that is named as a salt.
target: T1, Adrenergic β2 (Homo sapiens, UniProt P07550); assay: Adrenergic β2 mediated cAMP production in H292 cells (AlphaScreen cAMP detection); assay type: cell-based; details: Intrinsic Activity, fraction relative to the maximum activity determined for formoterol
T1 construct: Adherent H292 cells were removed from tissue culture flasks; endogenous in cells; host or cells: H292 cells
Description: Adrenergic β2 Mediated cAMP Production
H292 cells were grown in 225 cm2 flasks incubator at 37° C., 5% CO2 in RPMI medium containing, 10% (v/v) FBS (foetal bovine serum) and 2 mM L-glutamine.
Adherent H292 cells were removed from tissue culture flasks by treatment with Accutase™ cell detachment solution for 15 minutes. Flasks were incubated for 15 minutes in a humidified incubator at 37° C., 5% CO2. Detached cells were re-suspended in RPMI media (containing 10% (v/v) FBS and 2 mM L-glutamine) at 0.05×10^6 cells per mL. 5000 cells in 100 μL were added to each well of a tissue-culture-treated 96-well plate and the cells incubated overnight in a humidified incubator at 37° C., 5% CO2. The culture media was removed and cells were washed twice with 100 μL assay buffer and replaced with 50 μL assay buffer (HBSS solution containing 10 mM HEPES pH 7.4 and 5 mM glucose). Cells were rested at room temperature for 20 minutes after which time 25 μL of rolipram (1.2 mM made up in assay buffer containing 2.4% (v/v) dimethylsulphoxide) was added. Cells were incubated with rolipram for 10 minutes after which time test compounds were added and the cells were incubated for 60 minutes at room temperature. The final rolipram concentration in the assay was 300 μM and final vehicle concentration was 1.6% (v/v) dimethylsulphoxide. The reaction was stopped by removing supernatants, washing once with 100 μL assay buffer and replacing with 50 μL lysis buffer. The cell monolayer was frozen at −80° C. for 30 minutes (or overnight).
The concentration of cAMP (cyclic adenosine monophosphate) in the cell lysate was determined using AlphaScreen™ methodology. The frozen cell plate was thawed for 20 minutes on a plate shaker then 10 μL of the cell lysate was transferred to a 96-well white plate. 40 μL of mixed AlphaScreen™ detection beads pre-incubated with biotinylated cAMP, was added to each well and the plate incubated at room temperature for 10 hours in the dark. The AlphaScreen™ signal was measured using an EnVision spectrophotometer (Perkin-Elmer Inc.) with the recommended manufacturer's settings. cAMP concentrations were determined by reference to a calibration curve determined in the same experiment using standard cAMP concentrations. Concentration response curves for agonists were constructed and data was fitted to a four parameter logistic equation to determine both the pEC50 and Intrinsic Activity. Intrinsic Activity was expressed as a fraction relative to the maximum activity determined for formoterol in each experiment.

T1 sequence (P07550 whole entry): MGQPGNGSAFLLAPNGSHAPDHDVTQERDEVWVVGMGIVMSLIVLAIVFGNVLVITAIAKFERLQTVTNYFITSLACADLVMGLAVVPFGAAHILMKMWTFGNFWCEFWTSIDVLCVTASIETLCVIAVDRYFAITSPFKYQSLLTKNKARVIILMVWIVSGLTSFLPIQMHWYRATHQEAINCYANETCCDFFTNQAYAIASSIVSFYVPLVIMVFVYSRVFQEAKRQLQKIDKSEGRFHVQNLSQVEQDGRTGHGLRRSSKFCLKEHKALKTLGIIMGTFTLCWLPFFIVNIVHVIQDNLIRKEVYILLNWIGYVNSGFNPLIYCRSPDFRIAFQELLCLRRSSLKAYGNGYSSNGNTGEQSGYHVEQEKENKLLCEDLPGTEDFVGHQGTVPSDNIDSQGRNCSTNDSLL

Row | Compound | β2 Int Act
1 | CC(C)(CNCCC(=O)N(CCNCCc1ccc(O)c2[nH]c(=O)sc12)C1CCCCC1)c1ccccc1 [Example 21, N-Cyclohexyl-N-(2-{[2-(4-hydroxy-2-oxo-2,3-dihydro-1,3-benzothiazol-7-yl)ethyl]amino}ethyl)-N^3-(2-methyl-2-phenylpropyl)-β-alaninamide bis-trifluoroacetic acid salt] | 0.85
2 | O=C(CCNCCc1cccc(Cl)c1)N(CCNCCc1ccc(O)c2[nH]c(=O)sc12)C1CCOCC1 [Example 22, N^3-[2-(3-Chlorophenyl)ethyl]-N-(2-{[2-(4-hydroxy-2-oxo-2,3-dihydro-1,3-benzothiazol-7-yl)ethyl]amino}ethyl)-N-(tetrahydro-2H-pyran-4-yl)-β-alaninamide bis-trifluoroacetic acid salt] | 0.96
3 | O=C(CCNCCc1ccccc1)N(CCNCCc1ccc(O)c2[nH]c(=O)sc12)C1CCCCCC1 [Example 23, N-Cycloheptyl-N-(2-{[2-(4-hydroxy-2-oxo-2,3-dihydro-1,3-benzothiazol-7-yl)ethyl]amino}ethyl)-N^3-(2-phenylethyl)-β-alaninamide bis-trifluoroacetic acid salt] | 0.85
4 | O=C(CCNCCc1ccc(Cl)c(Cl)c1)N(CCNCCc1ccc(O)c2[nH]c(=O)sc12)C1CCOCC1 [Example 24, N^3-[2-(3,4-Dichlorophenyl)ethyl]-N-(2-{[2-(4-hydroxy-2-oxo-2,3-dihydro-1,3-benzothiazol-7-yl)ethyl]amino}ethyl)-N-(tetrahydro-2H-pyran-4-yl)-β-alaninamide bis-trifluoroacetic acid salt] | 0.77
5 | O=C(CCNCCc1ccc(Cl)cc1)N(CCNCCc1ccc(O)c2[nH]c(=O)sc12)C1CCOCC1 [Example 26, N^3-[2-(4-Chlorophenyl)ethyl]-N-(2-{[2-(4-hydroxy-2-oxo-2,3-dihydro-1,3-benzothiazol-7-yl)ethyl]amino}ethyl)-N-(tetrahydro-2H-pyran-4-yl)-β-alaninamide bis-trifluoroacetic acid salt] | 0.83
6 | Cc1ccccc1CCNCCC(=O)N(CCNCCc1ccc(O)c2[nH]c(=O)sc12)C1CCOCC1 [Example 27, N-(2-{[2-(4-Hydroxy-2-oxo-2,3-dihydro-1,3-benzothiazol-7-yl)ethyl]amino}ethyl)-N^3-[2-(2-methylphenyl)ethyl]-N-(tetrahydro-2H-pyran-4-yl)-β-alaninamide bis-trifluoroacetic acid salt] | 0.95
7 | O=C(CCNCCc1ccc(Cl)cc1)N(CCNCCc1ccc(O)c2[nH]c(=O)sc12)C1CCCC1 [Example 28, N^3-[2-(4-Chlorophenyl)ethyl]-N-cyclopentyl-N-(2-{[2-(4-hydroxy-2-oxo-2,3-dihydro-1,3-benzothiazol-7-yl)ethyl]amino}ethyl)-β-alaninamide bis-trifluoroacetic acid salt] | 0.87
8 | O=C(CCNCCc1ccccc1Cl)N(CCNCCc1ccc(O)c2[nH]c(=O)sc12)C1CCCC1 [Example 29, N^3-[2-(2-Chlorophenyl)ethyl]-N-cyclopentyl-N-(2-{[2-(4-hydroxy-2-oxo-2,3-dihydro-1,3-benzothiazol-7-yl)ethyl]amino}ethyl)-β-alaninamide bis-trifluoroacetic acid salt] | 0.97
9 | O=C(CCNCCc1cccc(Cl)c1)N(CCNCCc1ccc(O)c2[nH]c(=O)sc12)C1CCCC1 [Example 30, N^3-[2-(3-Chlorophenyl)ethyl]-N-cyclopentyl-N-(2-{[2-(4-hydroxy-2-oxo-2,3-dihydro-1,3-benzothiazol-7-yl)ethyl]amino}ethyl)-β-alaninamide bis-trifluoroacetic acid salt] | 0.96
10 | C[C@H](CNCCC(=O)N(CCNCCc1ccc(O)c2[nH]c(=O)sc12)C1CCCC1)c1ccccc1 [Example 31, N-cyclopentyl-N-(2-{[2-(4-hydroxy-2-oxo-2,3-dihydro-1,3-benzothiazol-7-yl)ethyl]amino}ethyl)-N^3-[(2S)-2-phenylpropyl]-β-alaninamide bis-trifluoroacetic acid salt] | 0.92
11 | CC(C)(CNCCC(=O)N(CCNCCc1ccc(O)c2[nH]c(=O)sc12)C1CCCC1)c1ccccc1 [Example 32, N-cyclopentyl-N-(2-{[2-(4-hydroxy-2-oxo-2,3-dihydro-1,3-benzothiazol-7-yl)ethyl]amino}ethyl)-N^3-(2-methyl-2-phenylpropyl)-β-alaninamide bis-trifluoroacetic acid salt] | 0.67
12 | O=C(CCNCCc1ccccn1)N(CCNCCc1ccc(O)c2[nH]c(=O)sc12)C1CCCCC1 [Example 33, N-Cyclohexyl-N-(2-{[2-(4-hydroxy-2-oxo-2,3-dihydro-1,3-benzothiazol-7-yl)ethyl]amino}ethyl)-N^3-(2-pyridin-2-ylethyl)-β-alaninamide bis-trifluoroacetic acid salt] | 0.78
13 | O=C(CCNCCc1ccc(O)cc1)N(CCNCCc1ccc(O)c2[nH]c(=O)sc12)C1CCCCC1 [Example 34, N-Cyclohexyl-N-(2-{[2-(4-hydroxy-2-oxo-2,3-dihydro-1,3-benzothiazol-7-yl)ethyl]amino}ethyl)-N^3-[2-(4-hydroxyphenyl)ethyl]-β-alaninamide bis-trifluoroacetic acid salt] | 0.75
14 | O=C(CCNCCc1cccs1)N(CCNCCc1ccc(O)c2[nH]c(=O)sc12)C1CCCCC1 [Example 35, N-Cyclohexyl-N-(2-{[2-(4-hydroxy-2-oxo-2,3-dihydro-1,3-benzothiazol-7-yl)ethyl]amino}ethyl)-N^3-[2-(2-thienyl)ethyl]-β-alaninamide bis-trifluoroacetic acid salt] | 0.91
15 | O=C(CCNCCc1cccc(F)c1)N(CCNCCc1ccc(O)c2[nH]c(=O)sc12)C1CCCCCC1 [Example 36, N-Cycloheptyl-N^3-[2-(3-fluorophenyl)ethyl]-N-(2-{[2-(4-hydroxy-2-oxo-2,3-dihydro-1,3-benzothiazol-7-yl)ethyl]amino}ethyl)-β-alaninamide bis-trifluoroacetic acid salt] | 0.84
16 | O=C(CCNCCc1cccc(O)c1)N(CCNCCc1ccc(O)c2[nH]c(=O)sc12)C1CCCCCC1 [Example 37, N-Cycloheptyl-N-(2-{[2-(4-hydroxy-2-oxo-2,3-dihydro-1,3-benzothiazol-7-yl)ethyl]amino}ethyl)-N^3-[2-(3-hydroxyphenyl)ethyl]-β-alaninamide bis-trifluoroacetic acid salt] | 0.91
17 | CC(C)(C)CN(CCNCCc1ccc(O)c2[nH]c(=O)sc12)C(=O)CCNC(C)(C)Cc1ccccc1 [Example 38, N^3-(1,1-Dimethyl-2-phenylethyl)-N-(2,2-dimethylpropyl)-N-(2-{[2-(4-hydroxy-2-oxo-2,3-dihydro-1,3-benzothiazol-7-yl)ethyl]amino}ethyl)-β-alaninamide bis-trifluoroacetic acid salt] | 0.42
18 | CC(=O)OCC(C)(C)CN(CCNCCc1ccc(O)c2[nH]c(=O)sc12)C(=O)CCNCCc1ccc(Cl)cc1 [Example 39, 3-[{N-[2-(4-Chlorophenyl)ethyl]-β-alanyl}(2-{[2-(4-hydroxy-2-oxo-2,3-dihydro-1,3-benzothiazol-7-yl)ethyl]amino}ethyl)amino]-2,2-dimethylpropyl acetate diacetic acid salt] | 0.58

— US7700782B2, “Compounds 569” (AstraZeneca AB, priority 2007, dated 2010)
